According to patent US20170209579A1, “NON-INVASIVE RADIOFREQUENCY FIELD TREATMENT FOR CANCER THERAPY” (Baylor College of Medicine, priority 2014, published 2017):

How the values were obtained:
[1] = system: HepG2 xenograft; test: Orthotopic HepG2 xenografts in CB17 SCID mice, tumor mass; assay type: in vivo, mouse
Source text: For in vivo studies, an implanted mouse model of human HCC was generated in CB17SCID mice (Taconic, Hudson, N.Y.). Female mice between 4 and 5 weeks in age were purchased and acclimatized in M.D. Anderson Animal facilities for up to one week. All animals were handled, housed and studied in accordance with the Institutional Animal Care and Use Committee. Tumors were generated after orthotopic implantation of approximately 1.6 million cells into the liver of each mouse (10 mice per group). Bioluminescence imaging indicated tumor development in the majority of mice three weeks after implantation. Euthanasia was performed by carbon dioxide inhalation followed by cervical spine dislocation.
Cultured luciferase and GFP-expression human HCC cell lines (Hep3B and HepG2) were harvested from an exponentially growing culture and washed with PBS. The cells were re-suspended in 3 ml PBS and final centrifugation was performed at 1000 RPM for 5 minutes. Supernatant was discarded and the cell pellet was used for implantation. The concentration of cells achieved using this protocol was 160,000 cells per micro liter. The cells were kept on ice and animals were injected within 3-4 hours after final centrifugation.
Before surgery, hair was removed from the ventral surface of the abdomen using clippers. Mice were anesthetized using 2.5% isoflurane. The surgical field was sterilized with 70% (v/v) ethanol in water. Mice were placed supine on a heating pad and the surgical site was sterilized using povidone iodine swab sticks. After confirming induction of anesthesia, an approximately 1-cm transverse incision was made in the skin of the upper abdomen slightly left of the midline. Deeper layers of muscle and peritoneum were incised and hemostasis was achieved using silver nitrate chemical cautery sticks. By applying gentle pressure on the lower abdomen and lower chest, the left lobe of the liver was eviscerated. […]
Mice with confirmed tumors on bioluminescence were then randomized in groups of 10. […] Sample size was calculated using Stata SE 12.1 for Mac (College Station, Tex.). […]

[2] = system: orthotopic pancreatic tumors (KPC pancreatic adenocarcinoma cells); test: Gemcitabine uptake into orthotopic KPC pancreatic tumors with and without RF (LC-MS); assay type: in vivo, mouse; conditions: 70 mg/Kg systemic injection, sacrificed 5 hours later, RF until 41° C.
Source text: FIGS. 11A-11E illustrate an example of an embodiment of the use RF energy to enhance the uptake of chemotherapy drugs into tumors compared to using chemotherapy drugs alone. (11A) Female Nude mice (4-6 weeks old) were given direct injections of KPC pancreatic adenocarcinoma cells (1×10^6) into the pancreas. After 1-2 weeks (enough time for a orthotopic pancreatic tumor to form) the mice were subjected to RF exposure under a ramped power treatment protocol as shown in the table. (11B) Graph of a typical RF power and resulting temperature versus time plot for a single mouse being exposed to RF energy. The surface temperature of the mouse in close proximity to the pancreas was recorded using an IR camera. The RF exposure was turned off once the temperature reached 41° C. […] Quantification of Gemcitabine was analyzed using Liquid Chromatography Mass Spectroscopy (LC-MS). (11E) Quantification of the levels of Gemcitabine in the orthotopic pancreatic tumors of mice with and without RF exposure. […]
FIGS. 11A-11E illustrate an example of an embodiment of the use RF energy to enhance the uptake of chemotherapy drugs into tumors compared to using chemotherapy drugs alone. […] The surface temperature of the mouse in close proximity to the pancreas was recorded using an IR camera. […] Quantification of Gemcitabine was analyzed using Liquid Chromatography Mass Spectroscopy (LC-MS). […]

**Q.** What does the source list for `Nc1ccn([C@@H]2O[C@H](CO)[C@@H](O)C2(F)F)c(=O)n1` [gemcitabine, 2′,2′-difluoro 2′-deoxycytidine]?
**A.** Mean tumor mass [±SD] ([1]; RF then gemcitabine, weekly for three weeks): 107 ± 64 mg; Mean tumor mass [±SD] ([1]; gemcitabine alone, weekly treatments for three weeks): 170 ± 51 mg; Mean tumor mass [±SD] ([1]; gemcitabine then RF, weekly for three weeks): 74 ± 45 mg; Gemcitabine present in tumors, RF-treated mice versus control group [2]: approximately 4 ×
